Consider 20 compounds from patent publication US8614201B2 (Janssen Pharmaceutica NV, priority 2009, dated 2013).

Sequence of Human TRPA1 (O75762 whole entry): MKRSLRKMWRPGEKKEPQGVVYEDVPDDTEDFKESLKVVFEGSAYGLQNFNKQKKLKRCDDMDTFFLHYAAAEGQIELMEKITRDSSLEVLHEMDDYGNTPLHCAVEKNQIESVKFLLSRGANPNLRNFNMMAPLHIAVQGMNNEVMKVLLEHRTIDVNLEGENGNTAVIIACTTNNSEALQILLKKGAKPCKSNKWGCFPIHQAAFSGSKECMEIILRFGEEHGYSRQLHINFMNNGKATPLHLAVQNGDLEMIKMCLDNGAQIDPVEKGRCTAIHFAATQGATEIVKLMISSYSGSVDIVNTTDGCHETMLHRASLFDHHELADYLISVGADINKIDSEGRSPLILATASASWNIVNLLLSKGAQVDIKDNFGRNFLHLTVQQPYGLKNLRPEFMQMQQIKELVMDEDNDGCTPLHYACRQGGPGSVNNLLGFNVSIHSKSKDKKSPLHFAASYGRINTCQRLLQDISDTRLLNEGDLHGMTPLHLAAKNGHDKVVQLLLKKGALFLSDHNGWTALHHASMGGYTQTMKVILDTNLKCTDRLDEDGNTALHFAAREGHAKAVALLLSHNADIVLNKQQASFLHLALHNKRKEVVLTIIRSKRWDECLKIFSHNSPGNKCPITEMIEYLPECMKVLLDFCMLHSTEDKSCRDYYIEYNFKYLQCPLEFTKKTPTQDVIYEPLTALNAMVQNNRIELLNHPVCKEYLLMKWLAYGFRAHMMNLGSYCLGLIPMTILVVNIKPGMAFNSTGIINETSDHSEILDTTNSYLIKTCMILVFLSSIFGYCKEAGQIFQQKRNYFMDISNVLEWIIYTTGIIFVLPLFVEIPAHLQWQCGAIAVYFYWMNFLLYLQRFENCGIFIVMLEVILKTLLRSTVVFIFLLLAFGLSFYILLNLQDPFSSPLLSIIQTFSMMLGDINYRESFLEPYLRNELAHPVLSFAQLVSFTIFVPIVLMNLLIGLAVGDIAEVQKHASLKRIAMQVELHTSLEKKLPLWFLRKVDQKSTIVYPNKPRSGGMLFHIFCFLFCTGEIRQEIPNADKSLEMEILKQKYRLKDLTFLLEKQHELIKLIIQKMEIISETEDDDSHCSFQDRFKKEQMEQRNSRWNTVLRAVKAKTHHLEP

In this assay the target is Human TRPA1 (Homo sapiens, UniProt O75762). As to the kind of experiment: Assay 1: In vitro cellular testing of TRPA1 modulation (CHO-TREx, Fluo-3 calcium fluorescence, AITC agonist). Type of assay: cell-based. To be noted: CHO-TREx cells expressing human TRPA1; Fluo-3 fluorescence (FLIPR/Tetra); agonist 15 μM allyl isothiocyanate (AITC); 30 minute antagonist incubation. The arrangement: expressed in transfected cells; host or cells: CHO-TREx cells (Invitrogen), vector pcDNA4/TO. In outline:
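Tetracycline-induced CHO-TREx cells stably expressing human TRPA1, loaded with 4 μM Fluo-3 AM, preincubated 30 min with compound (serial dilution typically from 10 μM, three-fold steps) in HEPES saline pH 7.4. Fluorescence change over 3 min after 15 μM AITC; IC50 from Hill fit versus no-antagonist and 10 μM ruthenium red controls.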
The term IC50 denotes the concentration at which inhibition is half-maximal. Regarding `O=C(NCc1ccnc(-c2ccc(C(F)(F)F)cc2)c1)[C@@H]1CC(F)(F)CN1S(=O)(=O)c1ccc(F)cc1` [Example 125, 4,4-Difluoro-1-(4-fluorobenzenesulfonyl)-pyrrolidine-2S-carboxylic acid [2-(4-trifluoromethylphenyl)-pyridin-4-ylmethyl]-amide], the IC50 amounted to 63 nM. The figure for `O=C(NCc1ccnc(-c2ccc(C(F)(F)F)cc2)c1)[C@@H]1CC(F)(F)CN1S(=O)(=O)c1ccc(Cl)s1` [Example 126, 1-(5-Chlorothiophene-2-sulfonyl)-4,4-difluoropyrrolidine-2S-carboxylic acid [2-(4-trifluoromethylphenyl)-pyridin-4-ylmethyl]-amide] is 46 nM.

For the compound `O=C(NCc1ccnc(-c2ccc(C(F)(F)F)cc2)c1)[C@@H]1C=CCN1S(=O)(=O)c1ccc(F)cc1` [Example 127, 1-(4-Fluorobenzenesulfonyl)-2,5-dihydro-1H-pyrrole-2S-carboxylic acid [2-(4-trifluoromethylphenyl)-pyridin-4-ylmethyl]-amide], the IC50 amounted to 42 nM.

As for `O=C(NCc1ccnc(-c2ccc(C(F)(F)F)cc2)c1)[C@@H]1C=CCN1S(=O)(=O)c1ccc(Cl)s1` [Example 128, 1-(5-Chlorothiophene-2-sulfonyl)-2,5-dihydro-1H-pyrrole-2S-carboxylic acid [2-(4-trifluoromethylphenyl)-pyridin-4-ylmethyl]-amide], the IC50 was 49 nM.

In the case of `O=C(NCc1ccnc(-c2ccc(OC(F)(F)F)cc2)c1)[C@@H]1CCCN1S(=O)(=O)c1ccc(F)cc1` [Example 129, 1-(4-Fluoro-benzenesulfonyl)-pyrrolidine-2S-carboxylic acid [2-(4-trifluoromethoxy-phenyl)-pyridin-4-ylmethyl]-amide], the half-maximal inhibitory concentration (IC50) came out at 19 nM. Regarding `O=C(NCc1ccnc(-c2ccc(OC(F)(F)F)cc2)c1)[C@@H]1CCCN1S(=O)(=O)c1ccc(Cl)s1` [Example 130, 1-(5-Chloro-thiophene-2-sulfonyl)-pyrrolidine-2S-carboxylic acid [2-(4-trifluoromethoxy-phenyl)-pyridin-4-ylmethyl]-amide], the half-maximal inhibitory concentration (IC50) stood at 6 nM. With `O=C(NCc1ccnc(-c2ccc(OC(F)(F)F)cc2)c1)[C@@H]1CC(F)(F)CN1S(=O)(=O)c1ccc(F)cc1` [Example 131, 4,4-Difluoro-1-(4-fluoro-benzenesulfonyl)-pyrrolidine-2S-carboxylic acid [2-(4-trifluoromethoxy-phenyl)-pyridin-4-ylmethyl]-amide], the half-inhibitory concentration (IC50) was determined as 87 nM. The value for `O=C(NCc1ccnc(-c2ccc(OC(F)(F)F)cc2)c1)[C@@H]1CC(F)(F)CN1S(=O)(=O)c1ccc(Cl)s1` [Example 132, 1-(5-Chloro-thiophene-2-sulfonyl)-4,4-difluoro-pyrrolidine-2S-carboxylic acid [2-(4-trifluoromethoxy-phenyl)-pyridin-4-ylmethyl]-amide] was 117 nM; that for `O=C(NCc1ccnc(-c2ccc(OC(F)(F)F)cc2)c1)[C@@H]1C=CCN1S(=O)(=O)c1ccc(F)cc1` [Example 133, 1-(4-Fluoro-benzenesulfonyl)-2,5-dihydro-1H-pyrrole-2S-carboxylic acid [2-(4-trifluoromethoxy-phenyl)-pyridin-4-ylmethyl]-amide] was 26 nM. The figure for `O=C(NCc1ccnc(-c2ccc(OC(F)(F)F)cc2)c1)[C@@H]1C=CCN1S(=O)(=O)c1ccc(Cl)s1` [Example 134, 1-(5-Chloro-thiophene-2-sulfonyl)-2,5-dihydro-1H-pyrrole-2S-carboxylic acid [2-(4-trifluoromethoxy-phenyl)-pyridin-4-ylmethyl]-amide] is 21 nM; for `O=C(NCc1cc(-c2ccc(C(F)(F)F)cc2)ccn1)[C@@H]1CCCN1S(=O)(=O)c1ccc(F)cc1` [Example 135, 1-(4-Fluoro-benzenesulfonyl)-pyrrolidine-2S-carboxylic acid [4-(4-trifluoromethyl-phenyl)-pyridin-2-ylmethyl]-amide] it is 22 nM; for `O=C(NCc1cc(-c2ccc(C(F)(F)F)cc2)ccn1)[C@@H]1CCCN1S(=O)(=O)c1ccc(Cl)s1` [Example 136, 1-(5-Chloro-thiophene-2-sulfonyl)-pyrrolidine-2S-carboxylic acid [4-(4-trifluoromethyl-phenyl)-pyridin-2-ylmethyl]-amide] it is 35 nM. As to `O=C(NCc1cc(-c2ccc(OC(F)(F)F)cc2)ccn1)[C@@H]1CCCN1S(=O)(=O)c1ccc(F)cc1` [Example 137, 1-(4-Fluoro-benzenesulfonyl)-pyrrolidine-2S-carboxylic acid [4-(4-trifluoromethoxy-phenyl)-pyridin-2-ylmethyl]-amide], the 50% inhibitory concentration (IC50) came to 37 nM. The figure for `O=C(NCc1cc(-c2ccc(OC(F)(F)F)cc2)ccn1)[C@@H]1CCCN1S(=O)(=O)c1ccc(Cl)s1` [Example 138, 1-(5-Chloro-thiophene-2-sulfonyl)-pyrrolidine-2S-carboxylic acid [4-(4-trifluoromethoxy-phenyl)-pyridin-2-ylmethyl]-amide] is 17 nM; for `O=C(NCc1cc(-c2ccc(C(F)(F)F)cc2)ccn1)[C@@H]1CC(F)(F)CN1S(=O)(=O)c1ccc(F)cc1` [Example 139, 4,4-Difluoro-1-(4-fluoro-benzenesulfonyl)-pyrrolidine-2S-carboxylic acid [4-(4-trifluoromethyl-phenyl)-pyridin-2-ylmethyl]-amide] it is 73 nM; for `O=C(NCc1cc(-c2ccc(C(F)(F)F)cc2)ccn1)[C@@H]1CC(F)(F)CN1S(=O)(=O)c1ccc(Cl)s1` [Example 140, 1-(5-Chloro-thiophene-2-sulfonyl)-4,4-difluoro-pyrrolidine-2S-carboxylic acid [4-(4-trifluoromethyl-phenyl)-pyridin-2-ylmethyl]-amide] it is 79 nM. The value for `O=C(NCc1cc(-c2ccc(OC(F)(F)F)cc2)ccn1)[C@@H]1CC(F)(F)CN1S(=O)(=O)c1ccc(F)cc1` [Example 141, 4,4-Difluoro-1-(4-fluoro-benzenesulfonyl)-pyrrolidine-2S-carboxylic acid [4-(4-trifluoromethoxy-phenyl)-pyridin-2-ylmethyl]-amide] was 73 nM; that for `O=C(NCc1cc(-c2ccc(OC(F)(F)F)cc2)ccn1)[C@@H]1CC(F)(F)CN1S(=O)(=O)c1ccc(Cl)s1` [Example 142, 1-(5-Chloro-thiophene-2-sulfonyl)-4,4-difluoro-pyrrolidine-2S-carboxylic acid [4-(4-trifluoromethoxy-phenyl)-pyridin-2-ylmethyl]-amide] was 78 nM. The value for `O=C(NCc1cc(-c2ccc(C(F)(F)F)cc2)ccn1)[C@@H]1C=CCN1S(=O)(=O)c1ccc(F)cc1` [Example 143, 1-(4-Fluoro-benzenesulfonyl)-2,5-dihydro-1H-pyrrole-2S-carboxylic acid [4-(4-trifluoromethyl-phenyl)-pyridin-2-ylmethyl]-amide] was 10 nM; that for `O=C(NCc1cc(-c2ccc(C(F)(F)F)cc2)ccn1)[C@@H]1C=CCN1S(=O)(=O)c1ccc(Cl)s1` [Example 144, 1-(5-Chloro-thiophene-2-sulfonyl)-2,5-dihydro-1H-pyrrole-2S-carboxylic acid [4-(4-trifluoromethyl-phenyl)-pyridin-2-ylmethyl]-amide] was 22 nM.
